Among the test systems are MALME-3M melanoma; SNB-19 CNS; NCI-H522 lung; SF-268 CNS; MCF7 breast; U251 CNS; MDA-MB-231 breast; UACC-62 melanoma; M14 melanoma; SK-MEL-2 melanoma.
Common to all, as to test: DTP human tumour cell line panel, 48 h

A word on the GI50: it is the concentration that inhibits growth by half. The term TGI denotes the concentration giving total growth inhibition. High values mean less potent growth arrest, low ones more potent growth arrest.

Several values for one entry are separate records, joined by “and”; a condition that tells them apart may be missing. Equal values may be shown once.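 Protocol summary: plate cells (96-well), add compound at 5 concentrations, incubate 48 h, interpolate endpoints linearly. At the GI50, growth is halved. TGI: total growth inhibition.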

Take `C=CC12CCN(CC1)C(C(O)c1ccnc3ccc(OC)cc13)C2` (stereo not drawn): the GI50 was 86.6 µM in the assay on MALME-3M melanoma; more than 100 µM with SNB-19 CNS; 47.8 µM with NCI-H522 lung; more than 100 µM with SF-268 CNS; 84.3 µM in the assay on MCF7 breast; more than 100 µM in the assay with U251 CNS. Further, the GI50 in the assay with MDA-MB-231 breast is more than 100 µM; in the assay with UACC-62 melanoma it was more than 100 µM; in the assay with M14 melanoma it was 87.1 µM; in the assay with SK-MEL-2 melanoma it was more than 100 µM. In addition, the TGI in the assay with MALME-3M melanoma, in the assay with SNB-19 CNS, in the assay with NCI-H522 lung, in the assay with SF-268 CNS, in the assay with MCF7 breast and in the assay with U251 CNS was more than 100 µM throughout. In addition, the TGI in the assay with MDA-MB-231 breast, with UACC-62 melanoma, in the assay on M14 melanoma and with SK-MEL-2 melanoma was more than 100 µM throughout.
Turning to `O=c1[nH]c(-c2cccc(F)c2)cc2cc(F)ccc12`, the GI50 was more than 100 µM in the assay on MALME-3M melanoma; 0.664 µM in the assay on SNB-19 CNS; 0.334 µM in the assay with NCI-H522 lung; more than 82.9 µM with SF-268 CNS; 0.329 µM with MCF7 breast; 0.47 µM in the assay with U251 CNS. The GI50 in the assay on MDA-MB-231 breast is 2.37 µM; with UACC-62 melanoma, 0.571 µM; in the assay on M14 melanoma, 0.16 µM; with SK-MEL-2 melanoma, 0.513 µM. Moreover, the TGI with MALME-3M melanoma, in the assay on SNB-19 CNS, in the assay on NCI-H522 lung, in the assay with SF-268 CNS, with MCF7 breast and in the assay with U251 CNS was more than 100 µM each time. The TGI with MDA-MB-231 breast, in the assay with UACC-62 melanoma, with M14 melanoma and in the assay on SK-MEL-2 melanoma was more than 100 µM throughout.
Consider `C=C(CN(C)Cc1ccccc1)c1ccc(NC(=O)c2ccc(C(=C)CN(C)Cc3ccccc3)cc2)cc1`, for which the GI50 in the assay on MALME-3M melanoma was more than 100 µM; in the assay on SNB-19 CNS, 25.5 µM; in the assay with NCI-H522 lung it was more than 100 µM; in the assay with SF-268 CNS it was 39.3 µM; with MCF7 breast, 59.3 µM; in the assay on U251 CNS, 20.7 µM. Further, the GI50 in the assay on MDA-MB-231 breast is 54.9 µM; in the assay on UACC-62 melanoma it was 50.2 µM; in the assay on M14 melanoma it was more than 100 µM; with SK-MEL-2 melanoma, 60.9 µM. Further, the total growth inhibition concentration (TGI) with MALME-3M melanoma was more than 100 µM; with SNB-19 CNS it was 80.1 µM; in the assay on NCI-H522 lung, more than 100 µM; with SF-268 CNS, more than 100 µM; in the assay on MCF7 breast, more than 100 µM; with U251 CNS, 45.7 µM. The TGI in the assay on MDA-MB-231 breast, with UACC-62 melanoma, in the assay with M14 melanoma and in the assay on SK-MEL-2 melanoma was more than 100 µM each time.
Take `N#CC(I)CS(=O)(=O)c1ccccc1` (stereo not drawn): the GI50 with MALME-3M melanoma was 2.13 µM; in the assay with SNB-19 CNS, more than 100 µM; in the assay on NCI-H522 lung it was 1.34 µM; in the assay with SF-268 CNS, 18.8 µM; in the assay with MCF7 breast it was 16.7 µM; in the assay with U251 CNS it was more than 100 µM. The GI50 was 17.3 µM in the assay with MDA-MB-231 breast, 16.6 µM in the assay with UACC-62 melanoma, 14.6 µM with M14 melanoma and 17.6 µM with SK-MEL-2 melanoma. For the same compound, the TGI is 4.27 µM in the assay on MALME-3M melanoma; more than 100 µM with SNB-19 CNS; 2.78 µM with NCI-H522 lung; 35.2 µM in the assay on SF-268 CNS; 39.9 µM in the assay with MCF7 breast; more than 100 µM in the assay on U251 CNS. In addition, the total growth inhibition concentration (TGI) worked out at 33.9 µM with MDA-MB-231 breast, 30.3 µM in the assay with UACC-62 melanoma, 28.4 µM in the assay on M14 melanoma and 33.2 µM in the assay on SK-MEL-2 melanoma.
For `NC(=O)c1cc(I)ccc1NC(=O)/C=C/c1ccccc1`, the GI50 with MALME-3M melanoma was 2.1 µM; in the assay with SNB-19 CNS it was 0.645 µM; in the assay on NCI-H522 lung it was 1.07 µM; with SF-268 CNS, 1.4 µM; with MCF7 breast it was 0.403 µM; in the assay with U251 CNS, 0.504 µM. Also, the GI50 is 0.769 µM in the assay on MDA-MB-231 breast, 0.457 µM with UACC-62 melanoma, 0.389 µM with M14 melanoma and 2.25 µM with SK-MEL-2 melanoma. Besides, the concentration for total growth inhibition (TGI) is more than 100 µM in the assay with MALME-3M melanoma; 13.7 µM in the assay with SNB-19 CNS; 23.7 µM with SF-268 CNS; more than 42.6 µM in the assay on MCF7 breast; 14.6 µM with U251 CNS; more than 67.2 µM in the assay with MDA-MB-231 breast. Also, the total growth inhibition concentration (TGI) was more than 77.6 µM in the assay with UACC-62 melanoma, more than 100 µM in the assay on M14 melanoma and more than 56.6 µM with SK-MEL-2 melanoma.
For `CC(C)=CCC1=C(O)c2ccccc2C(=O)C1=O`, the GI50 with MALME-3M melanoma is > 100 µM and 35.1 µM and 20.4 µM; in the assay with SNB-19 CNS, > 100 µM and 16.4 µM and 29.4 µM; in the assay with NCI-H522 lung, > 100 µM and 19.7 µM and 20.6 µM; in the assay on SF-268 CNS it was > 100 µM and 11.8 µM; in the assay on MCF7 breast it was 21.8 µM; with MDA-MB-231 breast, 21 µM. Also, the GI50 in the assay with UACC-62 melanoma is > 100 µM and 13.4 µM; with M14 melanoma it was > 100 µM and 45.8 µM and 16.3 µM; in the assay on SK-MEL-2 melanoma, 68.7 µM. For the same compound, the TGI in the assay on MALME-3M melanoma is > 100 µM and 96.2 µM; in the assay with SNB-19 CNS it was more than 100 µM; in the assay on NCI-H522 lung, more than 100 µM; in the assay with SF-268 CNS, more than 100 µM; in the assay on MCF7 breast it was more than 100 µM; in the assay with U251 CNS it was more than 100 µM. Moreover, the TGI in the assay on MDA-MB-231 breast is more than 100 µM; with UACC-62 melanoma, more than 100 µM; in the assay on M14 melanoma, more than 100 µM; in the assay on SK-MEL-2 melanoma, more than 88.3 µM.
Take `CNc1cc2oc(=O)cc(C)c2cc1C`: the TGI in the assay with MALME-3M melanoma, with SNB-19 CNS, in the assay on NCI-H522 lung, in the assay with SF-268 CNS, in the assay on MCF7 breast and with U251 CNS was more than 100 µM in each case. Moreover, the total growth inhibition concentration (TGI) in the assay with MDA-MB-231 breast, in the assay with UACC-62 melanoma, in the assay with M14 melanoma and in the assay with SK-MEL-2 melanoma was more than 100 µM in each case.
Turning to `O=C(Nc1nc(-c2c[nH]c3ccccc23)cs1)c1n[nH]c(=O)c2ccccc12`, the GI50 was 18.7 µM in the assay on MALME-3M melanoma; more than 34.5 µM in the assay with SNB-19 CNS; 3.26 µM in the assay with NCI-H522 lung; 1.25 µM with SF-268 CNS; 2.01 µM in the assay with MCF7 breast; 0.663 µM in the assay with U251 CNS. Further, the GI50 with MDA-MB-231 breast is 25.7 µM; in the assay with UACC-62 melanoma, 1.45 µM; with M14 melanoma it was 3.48 µM; in the assay on SK-MEL-2 melanoma, 13.4 µM. The total growth inhibition concentration (TGI) in the assay on MALME-3M melanoma is 80 µM; in the assay on SNB-19 CNS, more than 75 µM; with NCI-H522 lung, more than 58.2 µM; with SF-268 CNS, more than 46.2 µM; in the assay with MCF7 breast, more than 100 µM; in the assay with U251 CNS, 24 µM. Further, the TGI in the assay with MDA-MB-231 breast is more than 100 µM; with UACC-62 melanoma it was more than 100 µM; with M14 melanoma, 20.1 µM; in the assay on SK-MEL-2 melanoma it was more than 100 µM.

The values are drawn from PubChem BioAssay (NCI).
